Experimental findings from patent publication US12559492B2, “BRAF degraders” (C4 Therapeutics, Inc., priority 2020, dated 2026) are described below.

This assay addresses BRAF^V600E protein (Homo sapiens, UniProt P15056, V600E). As to the kind of experiment: HiBiT cellular BRAF V600E degradation assay. The format is cell-based. The conditions noted are these: 24 h incubation; for DC50: A375.10 cells (HiBiT tag knocked in at N-terminal of BRAF V600E), concentration at which 50% of total cellular BRAF V600E is degraded; for Emax: A375.10 cells, Emax = amount of residual protein remaining in the cell after compound treatment, read-out: HiBit 24 h Emax.

BRAF^V600E protein, sequence (P15056 whole entry V600E): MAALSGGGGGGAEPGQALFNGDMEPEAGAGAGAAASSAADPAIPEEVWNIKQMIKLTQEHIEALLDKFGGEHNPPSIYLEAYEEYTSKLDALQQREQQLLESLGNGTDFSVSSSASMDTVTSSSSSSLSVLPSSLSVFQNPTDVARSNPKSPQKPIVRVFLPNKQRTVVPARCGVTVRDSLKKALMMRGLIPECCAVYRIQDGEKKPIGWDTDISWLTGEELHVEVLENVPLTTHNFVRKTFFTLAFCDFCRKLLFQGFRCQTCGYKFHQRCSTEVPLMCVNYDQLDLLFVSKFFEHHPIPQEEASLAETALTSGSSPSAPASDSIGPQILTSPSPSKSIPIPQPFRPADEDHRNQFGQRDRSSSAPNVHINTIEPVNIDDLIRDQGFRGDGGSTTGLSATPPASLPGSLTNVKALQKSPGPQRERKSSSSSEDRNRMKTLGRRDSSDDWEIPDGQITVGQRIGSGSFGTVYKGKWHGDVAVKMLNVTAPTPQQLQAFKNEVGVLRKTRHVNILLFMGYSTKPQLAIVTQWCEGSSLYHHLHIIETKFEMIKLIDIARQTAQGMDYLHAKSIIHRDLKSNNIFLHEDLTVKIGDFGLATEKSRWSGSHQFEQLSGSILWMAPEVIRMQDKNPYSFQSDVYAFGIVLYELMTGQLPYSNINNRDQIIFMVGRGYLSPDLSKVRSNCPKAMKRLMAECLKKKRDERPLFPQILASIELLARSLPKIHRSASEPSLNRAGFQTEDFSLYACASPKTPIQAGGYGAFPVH

Consider `CCN(C)S(=O)(=O)Nc1ccc(F)c(C(=O)c2c[nH]c3ncc(-c4cnc(N5CCC(n6cc7c(n6)CN(c6ccc(NC8CCC(=O)NC8=O)cc6)CC7)CC5)nc4)cc23)c1F` (centres unmarked) [Example 161, 6-[4-[(2,6-dioxo-3-piperidyl)amino]phenyl]-2-[1-[5-[3-[3-[[ethyl(methyl)sulfamoyl]amino]-2,6-difluoro-benzoyl]-1H-pyrrolo[2,3-b]pyridin-5-yl]pyrimidin-2-yl]-4-piperidyl]-5,7-dihydro-4H-pyrazolo[3,4-c]pyridine], for which it took 14.6 nM to reach half-maximal degradation (DC50) and the Emax was determined as 8.46%.

For the compound `CCN(C)S(=O)(=O)Nc1ccc(F)c(C(=O)c2c[nH]c3ncc(-c4ccc(N5CCN(C(=O)CC6(O)CCN(c7ccc(N[C@@H]8CCC(=O)NC8=O)cc7F)CC6)CC5)cc4)cc23)c1F` [Example 178, 5-[4-[4-[2-[1-[4-[[(3R)-2,6-dioxo-3-piperidyl]amino]-2-fluoro-phenyl]-4-hydroxy-4-piperidyl]acetyl]piperazin-1-yl]phenyl]-3-[3-[[ethyl(methyl)sulfamoyl]amino]-2,6-difluoro-benzoyl]-1H-pyrrolo[2,3-b]pyridine], the DC50 turned out to be 2.71 nM and the Emax is 9.65%.

`CCN(C)S(=O)(=O)Nc1ccc(F)c(C(=O)c2c[nH]c3ncc(-c4cnc(N5CCN(C(=O)CN6CC7(C6)CN(c6ccc(NC8CCC(=O)NC8=O)cc6)C7)CC5)nc4)cc23)c1F` (centres unmarked) [Example 49, 5-[2-[4-[2-[2-[4-[(2,6-dioxo-3-piperidyl)amino]phenyl]-2,6-diazaspiro[3.3]heptan-6-yl]acetyl]piperazin-1-yl]pyrimidin-5-yl]-3-[3-[[ethyl(methyl)sulfamoyl]amino]-2,6-difluoro-benzoyl]-1H-pyrrolo[2,3-b]pyridine]: the DC50 came out at 24.9 nM and the maximal effect (Emax) worked out at 17.5%.

With `CCN(C)S(=O)(=O)Nc1ccc(F)c(C(=O)c2c[nH]c3ncc(-c4ccc(N5CCN(C(=O)CC6(O)CCN(c7ccc(NC8CCC(=O)NC8=O)cc7F)CC6)CC5)nc4)cc23)c1Cl` (centres unmarked) [Example 170, 3-[2-chloro-3-[[ethyl(methyl)sulfamoyl]amino]-6-fluoro-benzoyl]-5-[6-[4-[2-[1-[4-[(2,6-dioxo-3-piperidyl)amino]-2-fluoro-phenyl]-4-hydroxy-4-piperidyl]acetyl]piperazin-1-yl]-3-pyridyl]-1H-pyrrolo[2,3-b]pyridine], the DC50 stood at 4.59 nM and the Emax was determined as 10.5%.

As for `CCN(C)S(=O)(=O)Nc1ccc(F)c(C(=O)c2c[nH]c3ncc(-c4ccc(N5CCN(C(=O)CC6(O)CCN(c7ccc(NC8CCC(=O)NC8=O)cc7F)CC6)CC5)cc4)cc23)c1Cl` (centres unmarked) [Example 155, 3-[2-chloro-3-[[ethyl(methyl)sulfamoyl]amino]-6-fluoro-benzoyl]-5-[4-[4-[2-[1-[4-[(2,6-dioxo-3-piperidyl)amino]-2-fluoro-phenyl]-4-hydroxy-4-piperidyl]acetyl]piperazin-1-yl]phenyl]-1H-pyrrolo[2,3-b]pyridine], it took 6.33 nM to reach half-maximal degradation (DC50) and the maximal effect (Emax) was determined as 10.9%.

For `CCN(C)S(=O)(=O)Nc1ccc(F)c(C(=O)c2c[nH]c3ncc(-c4ccc(N5CCN(C(=O)CN6CCC(c7ccc(NC8CCC(=O)NC8=O)cc7)CC6)CC5)cc4)cc23)c1F` (centres unmarked) [Example A36, 5-[4-[4-[2-[4-[4-[(2,6-Dioxopiperidin-3-yl)amino]phenyl]piperidin-1-yl]acetyl]piperazin-1-yl]phenyl]-3-[3-[[ethyl(methyl)sulfamoyl]amino]-2,6-difluorobenzoyl]-1H-pyrrolo[2,3-b]pyridine], the 50% degradation concentration (DC50) was 3 nM and the Emax stood at 10%.

`CCN(C)S(=O)(=O)Nc1ccc(F)c(C(=O)c2c[nH]c3ncc(-c4cnc(N5CCN(C(=O)CN6CCC(c7ccc(N8CCC(=O)NC8=O)cc7)CC6)CC5)nc4)cc23)c1F` [Example A91, 5-[2-[4-[2-[4-[4-(2,4-Dioxo-1,3-diazinan-1-yl)phenyl]piperidin-1-yl]acetyl]piperazin-1-yl]pyrimidin-5-yl]-3-[3-[[ethyl(methyl)sulfamoyl]amino]-2,6-difluorobenzoyl]-1H-pyrrolo[2,3-b]pyridine]: the half-maximal degradation concentration (DC50) worked out at 5 nM and the Emax amounted to 8%.
